Results published in US10294202B2, “Pyrrolidinones as herbicides” (FMC Corporation, priority 2013, dated 2019).

Assays:
bromegrass, downy = test: Test C pre-/postemergence herbicide test; format: in vivo, Bromus tectorum
Outline: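 Plants grown and held in a greenhouse for 13 to 15 days post-spray, then rated 0–100 by visual comparison with controls. Pre treatments targeted seeds in loam and sand; post treatments targeted 1- to 4-leaf plants in peat-based potting medium.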

goosegrass = test: Test C pre-/postemergence herbicide test; format: in vivo, Eleusine indica
From the text: Seeds of plant species selected from blackgrass (Alopecurus myosuroides), ryegrass, Italian (Italian ryegrass, Lolium multiflorum), wheat (winter wheat, Triticum aestivum), galium (catchweed bedstraw, Galium aparine), corn (Zea mays), crabgrass, large (large crabgrass, Digitaria sanguinalis), foxtail, giant (giant foxtail, Setaria faberii), johnsongrass (Sorghum halepense), lambsquarters (Chenopodium album), morningglory (Ipomoea coccinea), nutsedge, yellow (yellow nutsedge, Cyperus esculentus), pigweed (Amaranthus retroflexus), ragweed (common ragweed, Ambrosia elatior), soybean (Glycine max), barnyardgrass (Echinochloa crus-galli), oilseed rape (Brassica napus), waterhemp (common waterhemp, Amaranthus rudis), kochia (Kochia scoparia), oat, wild (wild oat, Avena fatua), surinam grass (Brachiaria decumbens), foxtail, green (green foxtail, Setaria viridis), goosegrass (Eleusine indica), bromegrass, downy (downy bromegrass, Bromus tectorum), nightshade (eastern black nightshade, Solanum ptycanthum), cocklebur (common cocklebur, Xanthium strumarium), cupgrass, woolly (woolly cupgrass, Eriochloa villosa), bermudagrass (Cynodon dactylon), sunflower, (common oilseed sunflower, Helianthus annuus), Russian thistle (Salsola kali) and velvetleaf (Abutilon theophrasti) were planted into a blend of loam soil and sand and treated preemergence with test chemicals formulated in a non-phytotoxic solvent mixture which included a surfactant. At the same time, plants selected from these crop and weed species and also barley (winter barley, Hordeum vulgare), […]), chickweed (common chickweed, Stellaria media), deadnettle (henbit deadnettle, Lamium amplexicaule), and canarygrass (littleseed canarygrass, Phalaris minor) were planted in pots containing Redi-Earth® planting medium (Scotts Company, 14111 Scottslawn Road, Marysville, Ohio 43041) comprising spaghnum peat moss, vermiculite, wetting agent and starter nutrients and treated with postemergence applications of test chemicals formulated in the same manner. Plants ranged in height from 2 to 18 cm (1- to 4-leaf stage) for postemergence treatments. Treated plants and controls were maintained in a greenhouse for 13 to 15 days, after which time all species were compared to controls and visually evaluated. Plant response ratings, summarized in Table C, are based on a scale of 0 to 100 where 0 is no effect and 100 is complete control. A dash (-) response means no test result.

chamomile = test: Test D pre-/postemergence herbicide test; format: in vivo, Matricaria inodora; conditions: Postemergence, Chamomile, scale 0 to 100
Outline: (§1)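 Seeds sown in silt loam were sprayed preemergence with test chemicals in a non-phytotoxic solvent mixture with surfactant. Postemergence plants grown in peat/vermiculite medium were treated at 2–18 cm (1- to 4-leaf stage). After 7 to 21 days in a controlled environment, injury was rated visually versus controls, 0 (no effect) to 100 (complete control).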

chickweed = test: Test D pre-/postemergence herbicide test; format: in vivo, Stellaria media; conditions: Postemergence, Chickweed, scale 0 to 100
Outline: as §1

wild poinsettia = test: Test E preemergence herbicide test; format: in vivo, Euphorbia heterophylla; parameters: key: 0 = no effect, 100 = complete control
From the text: Seeds of plant species selected from corn (Zea mays), soybean (Glycine max), velvetleaf (Abutilon theophrasti), lambsquarters (Chenopodium album), wild poinsettia (Euphorbia heterophylla), pigweed, palmer (palmer pigweed, Amaranthus palmeri), waterhemp (common waterhemp, Amaranthus rudis), surinam grass (Brachiaria decumbens), crabgrass, large (large crabgrass, Digitaria sanguinalis), crabgrass, Brazil (Brazilian crabgrass, Digitaria horizontalis), panicum, fall (fall panicum, Panicum dichotomiflorum), foxtail, giant (giant foxtail, Setaria faberii), foxtail, green (green foxtail, Setaria viridis), goosegrass (Eleusine indica), johnsongrass (Sorghum halepense), ragweed (common ragweed, Ambrosia elatior), barnyardgrass (Echinochloa crus-galli), sandbur (southern sandbur, Cenchrus echinatus), arrowleaf […] rhombifolia), ryegrass, Italian (Italian ryegrass, Lolium multiflorum), dayflower, VA (Virginia dayflower, Commelina virginica), field bindweed (Convolvulus arvensis), morningglory (Ipomoea coccinea), nightshade (eastern black nightshade, Solanum ptycanthum), kochia (Kochia scoparia), nutsedge, yellow (yellow nutsedge, Cyperus esculentus), cocklebur (common cocklebur, Xanthium strumarium), smartweed (ladysthumb smartweed, Polygonum Persicaria) and beggarticks (hairy beggarticks, Bidens pilosa), were planted into a silt loam soil and treated preemergence with test chemicals formulated in a non-phytotoxic solvent mixture which included a surfactant. Treated plants and controls were maintained in a greenhouse for 21 days, after which time all species were compared to controls and visually evaluated. Plant response ratings, summarized in Table E, are based on a scale of 0 to 100 where 0 is no effect and 100 is complete control. A dash (-) response means no test result.

[1] = Postemergence, 31 g ai/ha, scale 0 (no effect) to 100 (complete control)
[2] = Postemergence, 62 g ai/ha, scale 0 to 100 (0 no effect, 100 complete control)
[3] = Postemergence, 125 g ai/ha, scale 0 to 100 (0 no effect, 100 complete control)
[4] = Postemergence, 250 g ai/ha, scale 0 to 100 (0 no effect, 100 complete control)
[5] = Preemergence, 62 g ai/ha, scale 0 to 100
[6] = Preemergence, 125 g ai/ha, scale 0 to 100 (0 no effect, 100 complete control)
[7] = Preemergence, 31 g ai/ha, scale 0 to 100 (0 no effect, 100 complete control)
[8] = Preemergence, 250 g ai/ha, scale 0 to 100 (0 no effect, 100 complete control)

Row | Compound | Plant response rating, Bromegrass, Downy (bromegrass, downy; [5]) | Plant response rating, Bromegrass, Downy (bromegrass, downy; [6]) | Bromegrass, Downy plant response rating (bromegrass, downy; [7]) | Plant response rating, Bromegrass, Downy (bromegrass, downy; [8]) | Plant response rating, Goosegrass (goosegrass; [5]) | Plant response rating, Goosegrass (goosegrass; [6]) | Goosegrass plant response rating (goosegrass; [7]) | Plant response rating, Poinsettia, Wild (wild poinsettia; 16 g ai/ha) | Plant response rating, Poinsettia, Wild (wild poinsettia; 31 g ai/ha) | Plant response rating, Poinsettia, Wild (wild poinsettia; 62 g ai/ha) | Plant response rating, Poinsettia, Wild (wild poinsettia; 125 g ai/ha) | Plant response rating, Poinsettia, Wild (wild poinsettia; 250 g ai/ha) | other results
1 | O=C1NCC(c2ccc(F)c(F)c2)C1C(=O)Nc1cccc(F)c1F (stereo not drawn) [Compound 17, N-(2,3-difluorophenyl)-4-(3,4-difluorophenyl)-2-oxo-3-pyrrolidinecarboxamide] | 30 | 45 | 0 | 65 | 50 | 85 | 0 | 0 | 0 | 0 | 0 | 20 | Plant response rating, Bromegrass, Downy (bromegrass, downy; [1]): 0; Plant response rating, Bromegrass, Downy (bromegrass, downy; [2]): 0; Plant response rating, Bromegrass, Downy (bromegrass, downy; [3]): 0; Plant response rating, Bromegrass, Downy (bromegrass, downy; [4]): 0; Plant response rating, Goosegrass (goosegrass; [1]): 0; Plant response rating, Goosegrass (goosegrass; [2]): 0; Plant response rating, Goosegrass (goosegrass; [3]): 0; Plant response rating, Goosegrass (goosegrass; [4]): 0; Plant response rating (chamomile; 16 g ai/ha): 0; Plant response rating (chamomile; 31 g ai/ha): 0; Plant response rating (chamomile; 62 g ai/ha): 0; Plant response rating (chamomile; 125 g ai/ha): 0; Plant response rating (chamomile; 250 g ai/ha): 0; Plant response rating (chickweed; 16 g ai/ha): 0; Plant response rating (chickweed; 31 g ai/ha): 0; Plant response rating (chickweed; 62 g ai/ha): 0; Plant response rating (chickweed; 125 g ai/ha): 25; Plant response rating (chickweed; 250 g ai/ha): 30
2 | O=C1NCC(c2ccc(Cl)c(Cl)c2)C1C(=O)Nc1ccccc1F (racemic) [Compound 14] | 0 | 0 | 0 | 0 | 0 | 0 | 0 | 0 | 0 | 15 | 20 | 25 | –
